Here are results for nine compounds from patent US7276339B2 (H. Lundbeck A/S, priority 1998, dated 2007).

Entries after “also recorded” stand apart in the source; their conditions may differ. Non-standard residues stand in square brackets, D forms with d. Residues, ends and D or L forms follow the SMILES beside them. No end group written: not given here. NMeF = CN[C@@H](Cc1ccccc1)C(=O)O

One test relates to NPFF receptors. Particulars: cited from earlier work; for inhibition of [125I](1DMe)Y8Fa binding: 10 μM.
The target in test [1] is T1, rat NPFF1 receptor (Rattus norvegicus, UniProt Q9EP86). The test can be described thus: [125I]D-Tyr-NPFF radioligand binding, membranes of COS-7 cells transiently expressing cloned rat NPFF1. Also noted: expressed in transfected cells; host or cells: COS-7 (transient). As for the experimental part:
Transfected cells from culture flasks are scraped into 5 ml of 20 mM Tris-HCl, 5 mM EDTA, pH 7.5, and lysed by sonication. The cell lysates are centrifuged at 1000 rpm for 5 min. at 4° C., and the supernatant is centrifuged at 30,000×g for 20 min. at 4° C. […] Optimal membrane suspension dilutions, defined as the protein concentration required to bind less than 10% of the added radioligand, […], unlabeled compounds, and binding buffer to a final volume of 250 μl. In equilibrium saturation binding assays membrane preparations are incubated in the presence of increasing concentrations of [^3H]-labeled compound. […] Competition assay: 50 pM radioligand, 10-12 points. Binding reaction mixtures are incubated for 2 hr at 25° C., and the reaction stopped by filtration through a double layer of GF filters treated with 0.1% polyethyleneimine, using a cell harvester. Wash buffer: 50 mM Tris-HCl, 0.1% BSA. Radioactivity may be measured by scintillation counting and data are analyzed by a computerized non-linear regression program. Non-specific binding is defined as the amount of radioactivity remaining after incubation of membrane protein in the presence of 1 μM final concentration […]. Protein concentration may be measured by the Bradford method using Bio-Rad Reagent, with bovine serum albumin as a standard.
Cos-7 cells transiently expressing the gene encoding the novel rat NPFF1 receptor were used for pharmacological evaluation.

Another test has as its target T2, rat NPFF2 receptor (Rattus norvegicus, UniProt Q9EQD2).
T2 construct: The full-length rat NPFF2 clone was amplified from rat spinal cord cDNA; expressed in transfected cells; host or cells: COS-7
The test can be described thus: [125I]D-Tyr-NPFF radioligand binding, cloned rat NPFF2. Particulars: for Ki: Table 3, title HEK-293 cells (text: Cos-7), [125I]D-Tyr-NPFF, read-out: pKi ± SEM, rat NPFF2 (converted). The method, then:
(§1) Transfected cells from culture flasks are scraped into 5 ml of 20 mM Tris-HCl, 5 mM EDTA, pH 7.5, and lysed by sonication. The cell lysates are centrifuged at 1000 rpm for 5 min. at 4° C., and the supernatant is centrifuged at 30,000×g for 20 min. at 4° C. The pellet is suspended in binding buffer (50 mM Tris-HCl, 60 mM NaCl, 1 mM MgCl, 33 μM EDTA, 33 μM EGTA at pH 7.4 supplemented with 0.2% BSA, 2 μg/ml aprotinin, and 20 μM bestatin). Optimal membrane suspension dilutions, defined as the protein concentration required to bind less than 10% of the added radioligand, are added to 96-well polpropylene microtiter plates containing ^3H-labeled compound, unlabeled compounds, and binding buffer to a final volume of 250 μl. In equilibrium saturation binding assays membrane preparations are incubated in the presence of increasing concentrations of [^3H]-labeled compound. The binding affinities of the different compounds are determined in equilibrium competition binding assays, using [^125I]-labeled compound in the presence of ten to twelve different concentrations of the displacing ligands. Competition assay: 50 pM radioligand, 10-12 points. Binding reaction mixtures are incubated for 2 hr at 25° C., and the reaction stopped by filtration through a double layer of GF filters treated with 0.1% polyethyleneimine, using a cell harvester. Wash buffer: 50 mM Tris-HCl, 0.1% BSA. Radioactivity may be measured by scintillation counting and data are analyzed by a computerized non-linear regression program. Non-specific binding is defined as the amount of radioactivity remaining after incubation of membrane protein in the presence of 1 μM final concentration […]. Protein concentration may be measured by the Bradford method using Bio-Rad Reagent, with bovine serum albumin as a standard.
(§2) Additional pharmacological evaluation was done using 293 human embryonic kidney cells (HEK-293 cells) transiently expressing the genes encoding the human NPFF1, NPFF2, and rat NPFF1 receptors, as well as Cos-7 cells expressing the rat NPFF2 receptors.

Test [2] deals with rat spinal cord membrane receptor. The test can be described thus: [125I]D-Tyr-NPFF radioligand binding, rat spinal cord membranes. Particulars: competition of [125I]D-Tyr-NPFF binding; * = differs from NPFF1. The text has this: The binding profile of rat NPFF1 was compared to that of rat spinal cord membranes. […] (See * Table 2).
A further test has as its target T3, human NPFF2 receptor (Homo sapiens, UniProt Q9Y5X5).
T3 construct: BO89, was determined to be a full length clone with no point mutations; expressed in transfected cells; host or cells: HEK-293 (transient)
The test can be described thus: [125I]D-Tyr-NPFF radioligand binding, HEK-293 cells expressing human NPFF2. Particulars: for Ki: Table 3, HEK-293 cells, [125I]D-Tyr-NPFF, read-out: pKi ± SEM, human NPFF2 (converted). As for the experimental part: as §1, §2

A further test relates to anesthetized rats. The test can be described thus: Distension-induced rhythmic contraction (DIRC) model of the micturition reflex in anesthetized rats. It is filed as in vivo, rat. The following applies: i.v.; fPP 0.1 mg/kg. As for the experimental part:
The effects of compounds on the micturition reflex were assessed in the “distension-induced rhythmic contraction” (DIRC) model in rats. This model of the micturition reflex has been described in previous publications (e.g. 72, 73).
Female Sprague Dawley rats weighing approximately 300 g were anesthetized with subcutaneous urethane (1.2 g/kg). The trachea was cannulated with PE240 tubing to provide a clear airway throughout the experiment. A midline abdominal incision was made and the left and right ureters were isolated. The ureters were ligated distally (to prevent escape of fluids from the bladder) and cannulated proximally with PE10 tubing. The incision was closed using 4-0 silk sutures, leaving the PE10 lines routed to the exterior for the elimination of urine. The bladder was canulated via the transurethral route using PE50 tubing inserted 2.5 cm beyond the urethral opening. This cannula was secured to the tail using tape and connected to a pressure transducer. To prevent leakage from the bladder, the cannula was tied tightly to the exterior urethral opening using 4-0 silk.
To initiate the micturition reflex, the bladder was first emptied by applying pressure to the lower abdomen, and then filled with normal saline in 100 μl increments (maximum=2 ml) until spontaneous bladder contractions occurred (typically 20-40 mmHg at a rate of one contraction every 2 to 3 minutes. Once a regular rhythm was established, vehicle (saline) or test compounds were administered intravenously to examine their effects on bladder activity. The effect of a compound which inhibited the micturition reflex was expressed as its “disappearance time”, defined as the time between successive bladder contractions in the presence of the test compound minus the time between contractions before compound administration.

In the next test the target is T4, human NPFF1 receptor (Homo sapiens, UniProt Q9GZQ6).
T4 construct: To obtain a full-length hNPFF1 construct in the correct orientation; expressed in transfected cells; host or cells: HEK-293 (transient)
T4 sequence (Q9GZQ6 whole entry): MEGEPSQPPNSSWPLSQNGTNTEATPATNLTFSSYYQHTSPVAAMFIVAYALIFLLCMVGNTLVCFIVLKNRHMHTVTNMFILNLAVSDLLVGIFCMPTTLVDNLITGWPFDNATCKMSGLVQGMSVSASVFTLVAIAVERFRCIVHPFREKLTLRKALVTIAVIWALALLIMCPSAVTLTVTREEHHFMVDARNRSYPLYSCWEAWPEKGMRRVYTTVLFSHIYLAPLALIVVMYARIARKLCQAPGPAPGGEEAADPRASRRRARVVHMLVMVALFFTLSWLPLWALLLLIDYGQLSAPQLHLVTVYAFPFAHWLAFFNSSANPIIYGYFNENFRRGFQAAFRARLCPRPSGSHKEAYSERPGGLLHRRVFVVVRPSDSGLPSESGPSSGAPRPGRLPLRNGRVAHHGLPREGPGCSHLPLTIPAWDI
The test can be described thus: [125I]D-Tyr-NPFF radioligand binding, HEK-293 cells expressing human NPFF1. The following applies: Table 3, read-out: pKi ± SEM, human NPFF1 (converted). As for the experimental part:
as §1, §2

In test [3] the target is T1, rat NPFF1 receptor. The test can be described thus: [125I]D-Tyr-NPFF radioligand binding, HEK-293 cells expressing rat NPFF1. Also noted: expressed in transfected cells. The following applies: Table 3, read-out: pKi ± SEM, rat NPFF1 (converted). The method, then:
as §1, §2

A further test has as its target T5, NPFF2 (NPFF-like) (Homo sapiens, UniProt Q9Y5X5).
T5 construct: linearized plasmids or PCR products containing the complete coding region of the genes; expressed in transfected cells; host or cells: Xenopus laevis oocytes injected with mRNA from ligation PCR products or linearized BO89
The test can be described thus: Voltage-clamp electrophysiology, Xenopus oocytes injected with NPFF-like (NPFF2) and chimeric Gαq/z RNA. It is filed as cell-based. Particulars: 1 μM, holding potential −80 mV. As for the experimental part: For expression of NPFF2, mRNA transcripts were generated as described for NPFF1, using PCR products from ligation reactions or linearized DNA from BO89 as DNA templates. Oocytes were injected with 5-50 ng NPFF2 mRNA and incubated as previously described.
(§3) Oocytes were harvested from Xenopus laevis and injected with mRNA transcripts as previously described (Quick and Lester, 1994; Smith et al., 1997). […] Three to eight hours prior to recording, oocytes were injected with 500 pg Gαq/z mRNA in order to observe coupling to Ca^++ activated Cl^− currents. Dual electrode voltage clamp (Axon Instruments Inc.) was performed using 3 M KCl-filled glass microelectrodes having resistances of 1-2 Mohm. Unless otherwise specified, oocytes were voltage clamped at a holding potential of −80 mV. During recordings, oocytes were bathed in continuously flowing (1-3 ml/min) medium containing 96 mM NaCl, 2 mM KCl, 1.8 mM CaCl2, 1 mM MgCl2, and 5 mM HEPES, pH 7.5 (ND96). Drugs were applied either by local perfusion from a […] glass capillary tube fixed at a distance of 0.5 mm from the oocyte, or by switching from a series of gravity fed perfusion lines.
(§4) Heterologous expression of GPCRs in Xenopus oocytes has been widely used to determine the identity of signaling pathways activated by agonist stimulation (Gundersen et al., 1983; Takahashi et al., 1987). Activation of the phospholipase C (PLC) pathway is assayed by applying test compound in ND96 solution to oocytes previously injected with mRNA for the mammalian receptor and observing inward currents at a holding potential of −80 mV. The appearance of currents that reverse at −25 mV and display other properties of the Ca^++-activated Cl^− (chloride) channel is indicative of mammalian receptor-activation of PLC and release of IP3 and intracellular Ca^++.

The target of the next test is T6, NPFF1 (SNORF2) (Rattus norvegicus, UniProt Q9EP86).
T6 construct: linearized plasmids or PCR products containing the complete coding region of the genes; expressed in transfected cells; host or cells: Xenopus laevis oocytes injected with synthetic RNA (T7 transcripts)
T6 sequence (Q9EP86 whole entry): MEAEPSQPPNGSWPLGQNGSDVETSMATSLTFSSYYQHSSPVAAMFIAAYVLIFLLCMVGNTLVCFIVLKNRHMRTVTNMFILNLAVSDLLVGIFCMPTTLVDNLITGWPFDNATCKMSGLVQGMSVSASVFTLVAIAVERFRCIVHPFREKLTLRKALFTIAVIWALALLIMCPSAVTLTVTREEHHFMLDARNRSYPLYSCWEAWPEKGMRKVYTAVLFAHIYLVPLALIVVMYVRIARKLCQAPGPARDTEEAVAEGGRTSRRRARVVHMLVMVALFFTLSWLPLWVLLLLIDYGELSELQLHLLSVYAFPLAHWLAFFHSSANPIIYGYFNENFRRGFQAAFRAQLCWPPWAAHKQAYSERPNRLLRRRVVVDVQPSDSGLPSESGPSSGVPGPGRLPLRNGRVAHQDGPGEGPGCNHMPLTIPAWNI
The experiment in a line: Voltage-clamp electrophysiology, Xenopus oocytes injected with SNORF2 (NPFF1) and chimeric Gαq/z RNA. It is filed as cell-based. Particulars: 1 μM; oocytes with SNORF2 + Gαq/z; holding potential −80 mV. The method, then:
as §3, §4

T2 sequence (Q9EQD2 whole entry): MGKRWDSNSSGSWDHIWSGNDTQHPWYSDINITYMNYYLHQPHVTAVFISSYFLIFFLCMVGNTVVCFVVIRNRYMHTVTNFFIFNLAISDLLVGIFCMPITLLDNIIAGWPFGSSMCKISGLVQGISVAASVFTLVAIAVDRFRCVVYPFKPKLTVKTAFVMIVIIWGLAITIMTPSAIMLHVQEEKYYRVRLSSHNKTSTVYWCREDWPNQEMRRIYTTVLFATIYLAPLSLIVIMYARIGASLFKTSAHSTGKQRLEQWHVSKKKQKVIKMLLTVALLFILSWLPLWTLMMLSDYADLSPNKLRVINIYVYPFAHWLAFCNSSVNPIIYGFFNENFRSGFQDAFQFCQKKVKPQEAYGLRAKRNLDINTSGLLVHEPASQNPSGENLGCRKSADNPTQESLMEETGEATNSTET
T1 sequence (Q9EP86 whole entry): as the sequence (Q9EP86 whole entry) above
T5 sequence (Q9Y5X5 103-522): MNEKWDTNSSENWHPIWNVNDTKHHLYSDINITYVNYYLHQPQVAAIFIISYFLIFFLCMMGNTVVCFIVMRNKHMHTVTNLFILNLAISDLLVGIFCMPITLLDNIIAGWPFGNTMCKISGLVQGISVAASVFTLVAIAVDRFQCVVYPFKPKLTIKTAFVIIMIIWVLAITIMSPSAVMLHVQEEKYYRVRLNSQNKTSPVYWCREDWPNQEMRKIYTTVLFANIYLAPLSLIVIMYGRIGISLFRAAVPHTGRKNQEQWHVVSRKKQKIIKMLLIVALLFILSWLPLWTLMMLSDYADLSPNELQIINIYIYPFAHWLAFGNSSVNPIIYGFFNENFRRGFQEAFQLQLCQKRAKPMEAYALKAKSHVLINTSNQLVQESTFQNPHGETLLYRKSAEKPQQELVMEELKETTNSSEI
T3 sequence (Q9Y5X5 103-522): as above

Turning to `CN1CC[C@]23c4c5ccc(O)c4O[C@H]2[C@@H](O)C=C[C@H]3[C@H]1C5` [morphine], the “inhibition of [125I](1DMe)Y8Fa binding” value in the test on NPFF receptors was “No inhibition”.

Take “APSEPHHPGDQATQDQLAQYYSDLYQYITFVTRPRF-NH2 (C-terminus assumed) [fPP]”: at rat NPFF1 receptor [1] (competition of [125I]D-Tyr-NPFF binding, COS-7 membranes), the “pKi for cloned rat NPFF1 receptor binding in COS-7 cells, MEAN” value came to 5.5. In addition, the “displacement of [125I]D-Tyr-NPFF binding on the NPFF1 receptor” value at rat NPFF1 receptor [1] (up to 1 uM) is recorded as “did not displace”. For the same compound, on rat NPFF2 receptor (from competition binding pKi), the “fold greater affinity for rat NPFF2 compared to rat NPFF1” value was determined as 31 fold. In addition, the “pKi for rat spinal cord membrane receptor binding, MEAN” value in test [2] is “*9.118”. Further, the “fold greater affinity for human NPFF2 compared to human NPFF1” value at human NPFF2 receptor (from competition binding pKi) came out at 77 fold. Also, the “effect on distension-induced rhythmic contractions of the bladder” value in the test with anesthetized rats is “inhibited”.

Take `CSCC[C@@H](NC(=O)[C@@H](N)Cc1ccccc1)C(=O)N[C@@H](CCCNC(=N)N)C(=O)N[C@@H](Cc1ccccc1)C(N)=O` [D-Met-FMRF amide]: the Ki at human NPFF1 receptor is 251 nM; at rat NPFF2 receptor, 631 nM; on rat NPFF1 receptor [3], 631 nM; on human NPFF2 receptor, 398 nM.

As to H-AGEGLSSPFWSLAAPQRF-NH2 [A18Fa], the inward current response result on NPFF2 (NPFF-like) is given as “activated similar inward currents”; at NPFF1 (SNORF2) it was “robust inward currents”. Moreover, the Ki is 63.1 nM on human NPFF1 receptor, 6.31 nM at rat NPFF2 receptor, 31.6 nM on rat NPFF1 receptor [3] and 1.26 nM on human NPFF2 receptor. Also, the “pKi for rat spinal cord membrane receptor binding, MEAN” value in test [2] is given as “*9.000”.

neurokinin A: the inward current response entry in the test with NPFF2 (NPFF-like) is “failed to activate; also recorded: no response”.

On to `CC(C)C[C@H](NC(=O)[C@H](N)Cc1ccc(O)cc1)C(=O)N(C)[C@@H](Cc1ccccc1)C(=O)N[C@@H](CCC(N)=O)C(=O)N1CCC[C@H]1C(=O)N[C@@H](CCC(N)=O)C(=O)N[C@@H](CCCNC(=N)N)C(=O)N[C@@H](Cc1ccccc1)C(N)=O` [(D-Tyr^1-(NMe)Phe^3)NPFF] (H-[dY]L[NMeF]QPQRF-NH2; N-terminus assumed), for which the “pKi for rat spinal cord membrane receptor binding, MEAN” value in [2] is listed as “*9.724”. Further, the Ki on NPFF receptors (spinal cord membranes, read-out: Ki, inhibition of [125I](1DMe)Y8Fa binding) was 0.16 nM.

Turning to NPY, in the test with NPFF2 (NPFF-like), the inward current response entry was “failed to activate; also recorded: no response”. In addition, the “inhibition of [125I](1DMe)Y8Fa binding” value with NPFF receptors is “No inhibition”.

Take `CSCC[C@H](NC(=O)[C@H](CC(C)C)NC(=O)CNC(=O)[C@H](Cc1ccccc1)NC(=O)[C@H](Cc1ccccc1)NC(=O)[C@H](CCC(N)=O)NC(=O)[C@H](CCC(N)=O)NC(=O)[C@@H]1CCCN1C(=O)[C@H](CCCCN)NC(=O)[C@@H]1CCCN1C(=O)[C@@H](N)CCCN=C(N)N)C(N)=O` [substance P]: the “inhibition of [125I](1DMe)Y8Fa binding” value in the test on NPFF receptors was “No inhibition”.

Take “orexin A (QPLPDCCRQKTCSCRLYELLHGAGNHAAGILTL; ends and bridges not checked; cysteine pairing not given here; UniProt O43612 34-66, looked up)”: the inward current response entry in the test with NPFF2 (NPFF-like) is “failed to activate; also recorded: no response”.
